One data set concerns maximum electric shock. The data set can be described thus: maximum tonic electro-induced cramp (Table 3). The format is in vivo, mice. Particulars: for ED50: Mus musculus, read-out: Maximum electric shock, ED50.
The test system of data set [1] is maximum Pentetrazol-induced extension. The data set can be described thus: maximum tonic extension spasm after subcutaneous administration of 121 mg/kg of Pentetrazol (Table 3). The format is in vivo, mice. Particulars: for ED50: Mus musculus, read-out: Maximum Pentetrazol-induced extension, ED50.
The nature of the next data set: in vivo. Particulars: for LD50: mouse, in vivo. How it is done: The comparative experiments in Table 3 were carried out with anhydro-2-mercapto-4-methyl-5-(3'-chlorophenyl)-1,3,4-thiadiazolium hydroxide, referred to as substance A in the Table and in the subsequent text.
In data set [2] the test system is minimum Pentetrazol-induced cramp. Briefly: minimum clonic cramp after subcutaneous administration of 70 mg/kg of Pentetrazol (Table 3). The class given is in vivo, mice. The settings on record: for ED50: Mus musculus, 0.75 h, read-out: Minimum Pentetrazol-induced cramp, ED50.
Data set [3] can be described thus: acute toxicity, intraperitoneal (Table 2). The settings on record: mouse, in vivo, ip, mice, approximate values. The source says:
^2) Mice. Intraperitoneal administration. Approximate values

The test system of data set [4] is clonic cramps caused by Pentetrazol. The data set can be described thus: anti-convulsive action against clonic spasms caused by Pentetrazol (60 mg/kg s.c.), inclined screen (Table 2). Particulars: Mus musculus, mice, oral, 30 minutes before s.c. 60 mg/kg Pentetrazol. The format is in vivo, female Swiss mice. How it is done:
As a pharmacological test of the anti-convulsive action against clonic spasms caused by Pentetrazol, the test substances were administered orally to groups of from 8 to 10 female Swiss mice weighing from 20 to 25 g, 30 minutes before subcutaneous administration of 60 mg/kg of Pentetrazol.
In the untreated animals, this dose of Pentetrazol caused clonic cramps, as a result of which the mice slid off an inclined screen.
Anti-convulsive agents prevent the cramps and the sliding off the screen, the degree of prevention depending on the dose. The ED50 was taken to be the dose after administration of which 50% of the treated animals remained on the screen.
^1) Action against clonic cramps caused by Pentetrazol in mice. Oral
administration 30 minutes before subcutaneous administration of 60 mg/kg

The mark [5] stands for this setting: mice, oral, tonic cramps induced by electric shock.
[6] abbreviates: mice, oral, 121 mg/kg Pentetrazol s.c.
Setting [7] is: mice, oral, 70 mg/kg Pentetrazol s.c., observed 45 minutes after Pentetrazol.

Read-outs that look alike come from different tables or passages of the source.

For `CCC1(c2ccccc2)C(=O)NC(=O)NC1=O` [Phenobarbital], the ED50 with maximum electric shock (po) was 11 mg/kg; in data set [1] (po), 22 mg/kg; in data set [2] (po) it was 30 mg/kg. For the same compound, the “activity in cramp induced by electric shock, relative to substance A” value in the data set with maximum electric shock (in words) is listed as “about twice as active”. The “activity in tonic cramp induced by Pentetrazol, relative to substance A” value in data set [1] (in words) is reported as “about twice as active”. For the same compound, in the data set “in vivo”, the LD50 is 320 mg/kg.
For `C[n+]1nc([S-])sc1-c1ccc(Br)cc1`, in data set [3], the LD50 was over 1000 mg/kg. Further, in data set [4], it took a dose of 46 mg/kg to reach the 50% effect level (ED50).
Consider `C[n+]1nc([S-])sc1-c1ccc(F)cc1`, for which the LD50 in data set [3] was over 1000 mg/kg. In data set [4], the ED50 is 2.2 mg/kg.
The corresponding values for `CCC[n+]1nc([S-])sc1-c1ccccc1` are 68.1 mg/kg and 22 mg/kg.
The corresponding values for `C[n+]1nc([S-])sc1-c1cccc(F)c1` are 1000 mg/kg and 2.2 mg/kg.
With `C[n+]1nc([S-])sc1-c1ccccc1F`, the LD50 in data set [3] is over 1000 mg/kg. This compound also showed an ED50 in data set [4] of 10 mg/kg.
The corresponding values for `C[n+]1nc([S-])sc1-c1cccc(C(F)(F)F)c1` are 681 mg/kg and 0.46 mg/kg.
The compound `CCC[n+]1nc([S-])sc1-c1ccc(Cl)cc1` came in with an LD50 in data set [3] of 681 mg/kg. The same compound displayed an ED50 in data set [4] of 32 mg/kg.
Take `C[n+]1nc([S-])sc1-c1cccc(Cl)c1` [Substance A, anhydro-2-mercapto-4-methyl-5-(3'-chlorophenyl)-1,3,4-thiadiazolium hydroxide]: the ED50 in the data set on maximum electric shock (setting [5]) came out at 23 mg/kg; in data set [1] (setting [6]), 10 mg/kg; in data set [2] (setting [7]), 7 mg/kg. The “toxicity compared with Phenobarbital and Phenytoin” value in “in vivo” (in words) was “markedly less than that of Phenobarbital and Phenytoin”. The LD50 in the data set “in vivo” was over 1000 mg/kg. Besides, the “activity in counteracting clonic spasms induced by Pentetrazol, compared with Phenobarbital and Phenytoin” value in data set [2] (in words) was “more active in counteracting clonic spasms induced by Pentetrazol than is Phenobarbital and above all than is Phenytoin”.
For the compound `CN1C(=O)OC(C)(C)C1=O` [Trimethadion], the figures for the median effective dose (ED50) (in the data set with maximum electric shock (setting [5]); in data set [1] (setting [6]); in data set [2] (setting [7])) were 450 mg/kg, 260 mg/kg and 240 mg/kg, respectively. Besides, the “times less active than substance A, tonic cramp test” value in data set [1] (tonic cramp test) is “more than 20 times”. In the data set “in vivo”, this compound displayed an LD50 of over 1000 mg/kg. Also, the “times less active than substance A, clonic cramp test” value in data set [2] (clonic cramp test) was “more than 20 times”.
For `C[n+]1nc([S-])sc1-c1cccc(Cl)c1` [drawing 15], in data set [3], the LD50 is over 1000 mg/kg. Moreover, the ED50 in data set [4] came to 3.2 mg/kg.
As for `O=C1NC(=O)C(c2ccccc2)(c2ccccc2)N1` [Phenytoin], the median effective dose (ED50) was 8 mg/kg with maximum electric shock (setting [5]) and 22 mg/kg in data set [1] (setting [6]). Besides, the “activity against clonic spasms induced by Pentetrazol” value in data set [2] (in words) is “inactive”. For the same compound, the “Minimum Pentetrazol-induced cramp, ED50” value in data set [2] (setting [7]) is “inactive”.

The term ED50 denotes the dose at which the effect has come halfway, by size or by number of responders. What is called LD50 is the dose expected to kill half of the subjects tested. High values mean a less toxic substance, low ones a more toxic substance.

For the origin of these results see patent US4000147A, “Anhydro-2-mercapto-1,3,4-thiadiazolium hydroxides” (BASF Aktiengesellschaft, priority 1974, dated 1976).
